In patent US20220152028A1, “COMBINATION DRUG TREATMENT FOR HUMAN CYTOMEGALOVIRUS” (Microbiotix, Inc., priority 2019, published 2022):

Columns and labels:
HCMV DNA polymerase UL54 = HCMV DNA polymerase UL54 (Human cytomegalovirus, UniProt P08546); settings: higher than GCV-TP; cited from earlier work
HCMV (strain AD169) = experiment: Plaque reduction assay in HFF cells infected with HCMV strain AD169; assay type: cell-based, human cytomegalovirus; settings: Human betaherpesvirus 5, 216 h, plaque count after 9 days, read-out: EC50, compound tested separately
Procedure: We examined the in vitro anti-HCMV (strain AD169; ATCC #VR-538) activity of filociclovir and letermovir both separately and as triplicate combinations at a concentration range of 0.0064-100 μM, and 0.0064-100 nM, respectively.
Monolayers of human foreskin fibroblasts (HFF cells; ATCC #SCRC-1041) were grown in 1 ml of DMEM (Corning #10-013-CM) containing 10% heat-inactivated fetal bovine serum (Gibco #A38402-01) and 1% penicillin-streptomycin solution (Hyclone #SV30010) in 24-well plates and infected with 100 plaque forming units (PFUs) of HCMV. Following incubation for 1 hr at 37° C., the virus was aspirated and replaced with MEM (Corning #50-010-PB) containing 1% methyl cellulose (Sigma #M-0521) and the various concentrations of filociclovir and letermovir were added as set forth above. A set of wells, designated as non-treated controls, received neither of the two compounds.
Infected plates were incubated for 9 days at 37° C., then fixed and stained with crystal violet stain (0.1% in 20% methanol). The number of plaques in each well was counted and the level of synergism was assessed using MacSynergy™ II (Prichard and Shipman 1990, supra), which provides an overall evaluation of the deviation from the theoretical additive effect of both drugs based on individual dose-response curves.

HCMV = settings: literature statement; cited from earlier work
[1] = tested on: HCMV UL56 mutants (V231L, V236M, C325F, C325Y); experiment: SEAP reporter susceptibility assay in ARPEp cells, UL56 mutants as a group; assay type: cell-based, human cytomegalovirus; settings: Human betaherpesvirus 5, read-out: mean EC50 values against the UL56 mutants tested
Excerpt: (§1) In order to test the effect of filociclovir on letermovir-resistant strains, we used 4 HCMV UL56 mutants encountered in clinical practice: V231L, V236M, C325F and C325Y, the latter 2 of which commonly emerged to confer absolute letermovir resistance (Grantham et al., Biol. Blood Marrow Transplant. 25: S344-S345 (2019); Turner et al., Antimicrob. Agents Chemother., 63(3): e02337-18 (2019)).
(§2) These UL56 amino acid substitutions were introduced into the bacterial artificial chromosome (BAC) clone BD2 of HCMV laboratory strain AD169 modified with a secreted alkaline phosphatase (SEAP) reporter gene, as previously described (Chou, S., Antimicrob. Agents Chemother., 59: 6588-6593 (2015)). The mutagenized BAC clones were transfected into modified retinal epithelial (ARPEp) cells and the recovered infectious recombinant viruses were then genotyped and phenotyped as previously described (Chou et al., Antimicrob. Agents Chemother., 62(9): e00922-18 (2018)).
(§3) Control strains included a baseline strain of wild-type UL56 and a UL97 M460V mutant that is resistant to […]. For susceptibility assays, calibrated viral inocula were added to 24-well plate cultures of ARPEp cells and incubated under a series of filociclovir concentrations, and the concentrations required to reduce SEAP activity by 50% (EC50) at 6 days were determined in duplicate assays on each of 3 to 5 setup dates.

HCMV UL97 M460V mutant = experiment: SEAP reporter susceptibility assay in ARPEp cells, UL97 M460V; assay type: cell-based, human cytomegalovirus
Excerpt: as §2, §3

HCMV UL56 mutant C325F = experiment: SEAP reporter susceptibility assay in ARPEp cells, UL56 C325F; assay type: cell-based, human cytomegalovirus
Excerpt: as §1, §2, §3

[2] = tested on: HCMV control strain UL56 wt; experiment: SEAP reporter susceptibility assay in ARPEp cells, baseline strain; assay type: cell-based, human cytomegalovirus; settings: Human betaherpesvirus 5, 144 h, read-out: Mean EC50
Excerpt: as §2, §3

HCMV UL56 mutant C325Y = experiment: SEAP reporter susceptibility assay in ARPEp cells, UL56 C325Y; assay type: cell-based, human cytomegalovirus
Excerpt: as §1, §2, §3

HCMV UL56 mutant V231L = experiment: SEAP reporter susceptibility assay in ARPEp cells, UL56 V231L; assay type: cell-based, human cytomegalovirus
Excerpt: as §1, §2, §3

HCMV UL56 mutant V236M = experiment: SEAP reporter susceptibility assay in ARPEp cells, UL56 V236M; assay type: cell-based, human cytomegalovirus
Excerpt: as §1, §2, §3

[3] = Human betaherpesvirus 5, 144 h, read-out: Mean EC50

Chain of HCMV DNA polymerase UL54 (P08546 whole entry): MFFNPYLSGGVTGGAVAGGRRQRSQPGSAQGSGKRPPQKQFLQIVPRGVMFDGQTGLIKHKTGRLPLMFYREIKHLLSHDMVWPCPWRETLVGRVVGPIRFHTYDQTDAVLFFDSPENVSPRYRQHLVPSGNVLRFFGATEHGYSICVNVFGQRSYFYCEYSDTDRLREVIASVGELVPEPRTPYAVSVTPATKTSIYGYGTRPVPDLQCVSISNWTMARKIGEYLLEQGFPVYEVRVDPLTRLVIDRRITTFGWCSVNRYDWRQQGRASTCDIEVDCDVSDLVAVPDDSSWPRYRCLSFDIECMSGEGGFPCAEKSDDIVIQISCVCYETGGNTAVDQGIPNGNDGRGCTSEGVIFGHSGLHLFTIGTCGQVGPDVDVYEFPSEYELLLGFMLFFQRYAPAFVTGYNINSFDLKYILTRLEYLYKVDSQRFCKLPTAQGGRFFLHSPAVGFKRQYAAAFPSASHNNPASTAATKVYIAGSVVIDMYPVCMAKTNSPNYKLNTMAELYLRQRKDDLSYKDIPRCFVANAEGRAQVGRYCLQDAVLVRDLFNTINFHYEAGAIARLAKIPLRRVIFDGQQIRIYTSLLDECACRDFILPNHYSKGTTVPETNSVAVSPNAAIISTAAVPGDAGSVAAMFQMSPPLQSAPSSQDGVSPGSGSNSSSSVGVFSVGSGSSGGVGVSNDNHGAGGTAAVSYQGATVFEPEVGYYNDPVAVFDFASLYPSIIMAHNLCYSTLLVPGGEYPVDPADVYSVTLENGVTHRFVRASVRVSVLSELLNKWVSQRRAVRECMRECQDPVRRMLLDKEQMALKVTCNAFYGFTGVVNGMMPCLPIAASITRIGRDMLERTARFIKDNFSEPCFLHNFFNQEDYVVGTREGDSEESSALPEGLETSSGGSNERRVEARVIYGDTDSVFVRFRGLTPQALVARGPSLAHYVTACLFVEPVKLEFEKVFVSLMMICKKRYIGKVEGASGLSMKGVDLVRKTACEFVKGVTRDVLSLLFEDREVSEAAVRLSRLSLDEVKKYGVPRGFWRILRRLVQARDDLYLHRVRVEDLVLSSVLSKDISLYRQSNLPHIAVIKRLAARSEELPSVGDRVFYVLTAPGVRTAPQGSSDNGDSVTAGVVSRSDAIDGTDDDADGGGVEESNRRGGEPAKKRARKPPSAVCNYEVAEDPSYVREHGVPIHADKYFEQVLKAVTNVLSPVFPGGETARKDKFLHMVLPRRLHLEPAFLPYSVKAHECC

SMILES: Nc1nc2c(ncn2/C=C2/CC2(CO)COP(=O)(O)OP(=O)(O)OP(=O)(O)O)c(=O)[nH]1 (stereo not shown) [FCV-TP, FCV triphosphate]
- affinity to HCMV DNA polymerase UL54 relative to GCV-TP (HCMV DNA polymerase UL54): about 10 fold

SMILES: COc1cccc(N2CCN(C3=Nc4c(F)cccc4[C@H](CC(=O)O)N3c3cc(C(F)(F)F)ccc3OC)CC2)c1 [letermovir, 2-[(4S)-8-fluoro-2-[4-(3-methoxyphenyl)piperazin-1-yl]-3-[2-methoxy-5-(trifluoromethyl)phenyl]-4H-quinazolin-4-yl]acetic acid, reference compound]
- EC50 (HCMV (strain AD169)): 3 nM
- EC50 values (HCMV): nanomolar range

SMILES: Nc1nc2c(ncn2/C=C2/CC2(CO)CO)c(=O)[nH]1 [Filociclovir, (Z)-9-{[2,2-bis-(hydroxymethyl)cyclopropylidene]methyl}guanine]
- EC50 [1]: 290 to 380 nM
- EC50 (HCMV UL97 M460V mutant; [3]): 2030 nM
- Ratio = EC50 of mutant/EC50 of wild type control (HCMV UL97 M460V mutant; UL97 M460V): 4.8
- EC50 (HCMV UL56 mutant C325F; [3]): 350 nM
- Ratio = EC50 of mutant/EC50 of wild type control (HCMV UL56 mutant C325F; UL56 C325F): 0.82
- EC50 (HCMV (strain AD169)): 550 nM
- EC50 [2]: 430 nM
- EC50 (HCMV UL56 mutant C325Y; [3]): 380 nM
- Ratio = EC50 of mutant/EC50 of wild type control (HCMV UL56 mutant C325Y; UL56 C325Y): 0.89
- EC50 (HCMV UL56 mutant V231L; [3]): 290 nM
- Ratio = EC50 of mutant/EC50 of wild type control (HCMV UL56 mutant V231L; UL56 V231L): 0.69
- EC50 (HCMV UL56 mutant V236M; [3]): 350 nM
- Ratio = EC50 of mutant/EC50 of wild type control (HCMV UL56 mutant V236M; UL56 V236M): 0.81
